Source: patent US9458447B2, “MPHOSPH1 peptides and vaccines including the same” (OncoTherapy Science, Inc., priority 2011, dated 2016)
Where no end group is shown, it is not given here.

How the values were obtained:
Type in all cases: cell-based, human
peptide-pulsed T2 cells = experiment: IFN-gamma ELISPOT assay of CTLs induced with peptide-pulsed DCs; conditions: CTLs from HLA-A*0201 positive donor after 3rd peptide stimulation, day 21; peptide-pulsed T2 vs control wells
Text: Monocyte-derived dendritic cells (DCs) were used as antigen-presenting cells to induce cytotoxic T lymphocyte (CTL) that responses against peptides presented on human leukocyte antigen (HLA). DCs were generated in vitro as described elsewhere (Nakahara S et al., Cancer Res 2003 Jul. 15, 63(14): 4112-8). Specifically, peripheral blood mononuclear cells isolated from a normal volunteer (HLA-A*0201 positive) by Ficoll-Paque plus (Pharmacia) solution were separated by adherence to a plastic tissue culture dish (Becton Dickinson) so as to enrich them as the monocyte fraction. The monocyte-enriched population was cultured in the presence of 1000 U/ml of granulocyte-macrophage colony-stimulating factor (R&D System) and 1000 U/ml of interleukin (IL)-4 (R&D System) in AIM-V Medium (Invitrogen) containing 2% heat-inactivated autologous serum (AS). After 7 days of culture, the cytokine-induced DCs were pulsed with 20 microgram/ml of each of the synthesized peptides in the presence of 3 microgram/ml of beta 2-microglobulin for 3 hr at 37 degrees C. in AIM-V Medium. The generated cells appeared to express DC-associated molecules, such as CD80, CD83, CD86 and HLA class II, on their cell surfaces (data not shown). These peptide-pulsed DCs were then inactivated by X ray-irradiated (20 Gy) and mixed at a 1:20 ratio with autologous CD8^+ T cells, obtained by positive selection with CD8 Positive Isolation Kit (Dynal). These cultures were set up in 48-well plates (Corning); each well contained 1.5×10^4 peptide-pulsed DCs, 3×10^5 CD8^+ T cells and 10 ng/ml of IL-7 (R&D System) in 0.5 ml of AIM-V/2% AS medium. Three days later, these cultures were supplemented with IL-2 (CHIRON) to a final concentration of 20 IU/ml. On day 7 and 14, the T cells were further stimulated with the autologous peptide-pulsed DCs. The DCs were prepared each time by the same way described above. CTL was tested against peptide-pulsed T2 cells after the 3rd round of peptide stimulation on day 21 (Tanaka H et al., Br J Cancer 2001 Jan. 5, 84(1): 94-9; Umano Y et al., Br J Cancer 2001 Apr. 20, 84(8): 1052-7; Uchida N et al., Clin Cancer Res 2004 Dec. 15, 10(24): 8577-86; Suda T et al., Cancer Sci 2006 May, 97(5): 411-9; Watanabe T et al., Cancer Sci 2005 August, 96(8): 498-506).
(§1) To examine specific CTL activity, interferon(IFN)-gamma enzyme-linked immunospot (ELISPOT) assay and IFN-gamma enzyme-linked immunosorbent assay (ELISA) were performed. Peptide-pulsed T2 (1×10^4/well) was prepared as stimulator cells. Cultured cells in 48-well plate, CTL lines and CTL clones were used as responder cells. IFN-gamma ELISPOT assay and IFN-gamma ELISA assay were performed under manufacture procedure.

[1] = system: T2 cells pulsed with the corresponding peptide; experiment: IFN-gamma ELISA of established CTL lines; conditions: T2 cells pulsed with corresponding peptide vs T2 cells without peptide pulse
Procedure: CTLs were expanded in culture using the method similar to the one described by Riddell et al. (Walter E A et al., N Engl J Med 1995 Oct. 19, 333(16): 1038-44; Riddell S R et al., Nat Med 1996 February, 2(2): 216-23). A total of 5×10^4 CTLs were suspended in 25 ml of AIM-V/5% AS medium with 2 kinds of human B-lymphoblastoid cell lines, inactivated by Mitomycin C, in the presence of 40 ng/ml of anti-CD3 monoclonal antibody (Pharmingen). One day after initiating the cultures, 120 IU/ml of IL-2 were added to the cultures. The cultures were fed with fresh AIM-V/5% AS medium containing 30 IU/ml of IL-2 on days 5, 8 and 11 (Tanaka H et al., Br J Cancer 2001 Jan. 5, 84(1): 94-9; Umano Y et al., Br J Cancer 2001 Apr. 20, 84(8): 1052-7; Uchida N et al., Clin Cancer Res 2004 Dec. 15, 10(24): 8577-86; Suda T et al., Cancer Sci 2006 May, 97(5): 411-9; Watanabe T et al., Cancer Sci 2005 August, 96(8): 498-506).
as §1

UMUC-3 cells = experiment: Cytotoxic activity of CTL clone, 51Cr-release; conditions: express both MPHOSPH1 and HLA-A*0201
Procedure: (§2) The CTL clones were examined for their ability to kill the tumor cells endogenously expressing MPHOSPH1 and HLA-A*0201. Target cells (tumor cell lines) were labeled with 100 micro-Ci of Na2^51CrO4 (Perkin Elmer) for 1 hr in CO2 incubator. Peptide-pulsed target cells were prepared by incubating the cells with 20 microgram/ml of the peptide for 16 hrs before labeling. Target cells labeled with ^51Cr were rinsed and mixed with CTL clones in a final volume of 200 microliter in 96-well round-bottom microtiter plates. The plates were centrifuged (4 minutes at 800 rpm) to increase cell-to-cell contact and placed into CO2 incubator. After 4 hrs of incubation, 50 microliter of the supernatant was collected from each well and the radioactivity was determined with a gamma counter (PerkinElmer). The percentage of specific cytotoxicity was determined by calculating the percentage of specific ^51Cr-release by the following formula: {(cpm of the test sample release−cpm of the spontaneous release)/(cpm of the maximum release−cpm of the spontaneous release)}×100. Spontaneous release was determined by incubating the target cells alone, in the absence of effector cells. The maximum release was obtained by incubating the targets with 1N HCl. All measurements were done in duplicate.

MKN45 cells = experiment: Cytotoxic activity of CTL clone, 51Cr-release, HLA-A*0201-negative control; conditions: express MPHOSPH1 but not HLA-A*0201
Procedure: as §2

T2 cells = experiment: Cytotoxic activity of CTL clone, 51Cr-release, MPHOSPH1-negative control; conditions: express HLA-A*0201 but not MPHOSPH1
Procedure: as §2

[2] = system: T2 cells pulsed with corresponding peptide; experiment: IFN-gamma ELISA of CTL clones established by limiting dilution
Procedure: The dilutions were made to have 0.3, 1, and 3 CTLs/well in 96 round-bottomed micro titer plate (Nalge Nunc International). CTLs were cultured with 1×10^4 cells/well of 2 kinds of human B-lymphoblastoid cell lines, 30 ng/ml of anti-CD3 antibody, and 125 U/ml of IL-2 in a total of 150 microliter/well of AIM-V Medium containing 5% AS. 50 microliter/well of IL-2 were added to the medium 10 days later to reach a final concentration of 125 U/ml IL-2. CTL activity was tested on the 14th day, and CTL clones were expanded using the same method as described above (Uchida N et al., Clin Cancer Res 2004 Dec. 15, 10(24): 8577-86; Suda T et al., Cancer Sci 2006 May, 97(5): 411-9; Watanabe T et al., Cancer Sci 2005 August, 96(8): 498-506).
as §1

Row | Substance | Peptide specific CTL activity (IFN-gamma production) by IFN-gamma ELISPOT (peptide-pulsed T2 cells) | IFN-gamma production of CTL lines by IFN-gamma ELISA [1] | Cytotoxic activity of CTL clone (UMUC-3 cells) | Cytotoxic activity of CTL clone (MKN45 cells) | Cytotoxic activity of CTL clone (T2 cells) | IFN-gamma production from CTL clones by IFN-gamma ELISA [2]
1 | FQGCIMQPV (a peptide derived from MPHOSPH1) [SEQ ID NO: 14] | potent IFN-gamma production as compared to the control wells | potent IFN-gamma production against T2 cells pulsed with the corresponding peptide | – | – | – | –
2 | KLSNeIETAT (KLSNEIETAT; not fully specified (residue 5); printed as KLSNeIETAT) [SEQ ID NO: 97] | potent IFN-gamma production as compared to the control wells | potent IFN-gamma production against T2 cells pulsed with the corresponding peptide | – | – | – | –
3 | KLLDLIEDL (a peptide derived from MPHOSPH1) [SEQ ID NO: 1] | no specific IFN-gamma production was observed | – | – | – | – | –
4 | YIYDLFVPVS [SEQ ID NO: 120, YIYDLFVPVS] | – | – | potent cytotoxic activity | no significant cytotoxic activity was detected | no significant cytotoxic activity was detected | –
5 | FLLTIENEL (a peptide derived from MPHOSPH1) [SEQ ID NO: 5] | potent IFN-gamma production as compared to the control wells | potent IFN-gamma production against T2 cells pulsed with the corresponding peptide | – | – | – | Potent IFN-gamma production was observed
6 | QLVAaLEIQL (QLVAALEIQL; not fully specified (residue 5); printed as QLVAaLEIQL) [SEQ ID NO: 103] | potent IFN-gamma production as compared to the control wells | potent IFN-gamma production against T2 cells pulsed with the corresponding peptide | – | – | – | –
7 | GLRAFLLTI (a peptide derived from MPHOSPH1) [SEQ ID NO: 64] | potent IFN-gamma production as compared to the control wells | potent IFN-gamma production against T2 cells pulsed with the corresponding peptide | – | – | – | Potent IFN-gamma production was observed
8 | LLTLgKCINV (LLTLGKCINV; not fully specified (residue 5); printed as LLTLgKCINV) [SEQ ID NO: 79] | potent IFN-gamma production as compared to the control wells | potent IFN-gamma production against T2 cells pulsed with the corresponding peptide | – | – | – | –
9 | YLAYdETLNV (YLAYDETLNV; not fully specified (residue 5); printed as YLAYdETLNV) [SEQ ID NO: 73] | potent IFN-gamma production as compared to the control wells | potent IFN-gamma production against T2 cells pulsed with the corresponding peptide | – | – | – | Potent IFN-gamma production was observed
10 | KLICnETVEV (KLICNETVEV; not fully specified (residue 5); printed as KLICnETVEV) [SEQ ID NO: 77] | potent IFN-gamma production as compared to the control wells | potent IFN-gamma production against T2 cells pulsed with the corresponding peptide | – | – | – | Potent IFN-gamma production was observed
